Read-outs that look alike come from different tables or passages of the source.
Key:
Type in all cases: in vivo
[1] = system: pineapple mealybug Dysmicoccus brevipes; experiment: Pseudostem (and foliar) spray application on banana trees against pineapple mealybug; details: banana cv. Cavendish, 50 ml on leaves and 50 ml on peeled stem, mealybug on the stem, Banole oil 30 g/l, chlorpyrifos-methyl 0.8 g/l, (II) SC 240 0.3 g/l in tank mix with 0.025% Hoestick
Method: Banana trees (growth stage BBCH 1130) cv. “Cavendish” consisting of mother plant and sucker are treated in three replications following foliar treatment against Aspidiotus destructor and against the pineapple mealybug Dysmicoccus brevipes by pseudostem application. To this end, in each case 100 ml of spray solution are applied, in each case 50 ml being sprayed onto the leaves and 50 ml onto the stem. Before the stem application, the outermost stem layer is first peeled off, which is general practice. Here, the active substance (II) (SC 240) is tested in a tank mix along with 0.025% Hoestick (XL 500) versus the commercial standards chlorpyrifos-methyl (500 EC) and liquid paraffin (Banole oil) (EC 600).
The evaluation is carried out 3, 7, 14 and 22 days after the treatment by scoring the destruction of the pineapple mealybug on the stem.

[2] = system: California red scale Aonidiella aurantii; experiment: Stem application by painting on to orange trees against California red scale; details: 205 days after treatment, orange trees cv. Valencia, infestation on the fruits, imidacloprid 2 g a.i./tree, Example (II) (SC 240) 4 g a.i./tree
Method: Young orange trees cv. “Valencia” which are approximately 5 years old are treated in three applications against the California red scale Aonidiella aurantii after stem application by painting on the active substances. Here, the active substance (II) (SC 240) is tested versus the commercial standard imidacloprid at the application rates detailed. The evaluation is carried out 205 days after the treatment by scoring the infestation on the fruits.

[3] = system: banana flower thrips (Thrips hawaiiensis); experiment: Flower bud injection on banana trees against banana flower thrips; details: banana cv. Cavendish, 80 ml injected into flower buds, destruction of population on influorescences and bunches, imidacloprid (100 SL) 0.1 g a.i./l, Example (II) (100 OD) 0.3 g a.i./l; for Activity in % Abbott 3 d: 3 days after treatment; for Activity in % Abbott 91 d: 91 days after treatment
Method: Banana trees cv. “Cavendish” are treated in three replications against banana flower thrips (Thrips hawaiiensis). Here, the active substances Example (II) (100 OD) are tested versus the commercial standard imidacloprid (100 SL) at the application rates specified. The application is carried out by injecting in each case 80 ml of injection solution into the flower buds. In each case three flower buds are treated. The evaluation is effected 3 and 91 days after the treatment by scoring the destruction of the population on the influorescences and bunches.

| Compound | inhibition at 300 µg/mL ([1]; SC240, 72 h, 3 days after treatment, read-out: Activity (%) Abbott 3 d) | inhibition at 300 µg/mL ([1]; SC240, 168 h, 7 days after treatment, read-out: Activity (%) Abbott 7 d) | inhibition at 300 µg/mL ([1]; SC240, 336 h, 14 days after treatment, read-out: Activity (%) Abbott 14 d) | inhibition at 300 µg/mL ([1]; SC240, 528 h, 22 days after treatment, read-out: Activity (%) Abbott 22 d) | Efficacy (% Abbott) [2] | Activity in % Abbott 3 d [3] | Activity in % Abbott 91 d [3] |
| --- | --- | --- | --- | --- | --- | --- | --- |
| CCOC(=O)OC1=C(c2cc(C)ccc2C)C(=O)N[C@]12CC[C@@H](OC)CC2 [Example (II)] | 81.2% | 92.3% | 96.4% | 96.7% | 100 % Abbott | 66.7 % Abbott | 100 % Abbott |
| O=[N+]([O-])NC1=NCCN1Cc1ccc(Cl)nc1 [Imidacloprid, imidacloprid, reference compound] | – | – | – | – | 100 % Abbott | 98.4 % Abbott | 100 % Abbott |

Reference: patent publication US20100324303A1, “Use of Tetramic Acid Derivatives for Controlling Animal Pests After Treatment of the Trunk, the Branches, the Influorescences or the Buds” (Bayer CropScience AG, priority 2008, published 2010)
